ChEMBL document CHEMBL5120851, “Discovery of indirubin-3'-aminooxy-acetamide derivatives as potent and selective FLT3/D835Y mutant kinase inhibitors for acute myeloid leukemia” (Eur J Med Chem, 2022)

Experiments:
[1] = test system: MV4-11; test: Antiproliferative activity against human MV4-11 cells assessed as inhibition of cell growth incubated for 72 hrs by EZ-Cytox colorimetric assay; type: functional
[2] = test system: MOLM-14; test: Antiproliferative activity against human MOLM-14 cells assessed as inhibition of cell growth incubated for 72 hrs by EZ-Cytox colorimetric assay; type: functional
[3] = test system: MOLM-14; test: Antiproliferative activity against human MOLM-14 cells harboring FLT3 ITD/D835Y double mutant assessed as inhibition of cell growth incubated for 72 hrs by EZ-Cytox colorimetric assay; type: functional
[4] = test system: MOLM-14; test: Antiproliferative activity against human MOLM-14 cells harboring FLT3 ITD/F691L double mutant assessed as inhibition of cell growth incubated for 72 hrs by EZ-Cytox colorimetric assay; type: functional
[5] = target: T1, Receptor-type tyrosine-protein kinase FLT3 (Homo sapiens, UniProt P36888); test: Inhibition of human recombinant His-tagged FLT3 kinase domain (564 to 958 residues) expressed in baculovirus expression system incubated for 30 mins in presence of ATP by HTRF analysis
T1 sequence (P36888 whole entry): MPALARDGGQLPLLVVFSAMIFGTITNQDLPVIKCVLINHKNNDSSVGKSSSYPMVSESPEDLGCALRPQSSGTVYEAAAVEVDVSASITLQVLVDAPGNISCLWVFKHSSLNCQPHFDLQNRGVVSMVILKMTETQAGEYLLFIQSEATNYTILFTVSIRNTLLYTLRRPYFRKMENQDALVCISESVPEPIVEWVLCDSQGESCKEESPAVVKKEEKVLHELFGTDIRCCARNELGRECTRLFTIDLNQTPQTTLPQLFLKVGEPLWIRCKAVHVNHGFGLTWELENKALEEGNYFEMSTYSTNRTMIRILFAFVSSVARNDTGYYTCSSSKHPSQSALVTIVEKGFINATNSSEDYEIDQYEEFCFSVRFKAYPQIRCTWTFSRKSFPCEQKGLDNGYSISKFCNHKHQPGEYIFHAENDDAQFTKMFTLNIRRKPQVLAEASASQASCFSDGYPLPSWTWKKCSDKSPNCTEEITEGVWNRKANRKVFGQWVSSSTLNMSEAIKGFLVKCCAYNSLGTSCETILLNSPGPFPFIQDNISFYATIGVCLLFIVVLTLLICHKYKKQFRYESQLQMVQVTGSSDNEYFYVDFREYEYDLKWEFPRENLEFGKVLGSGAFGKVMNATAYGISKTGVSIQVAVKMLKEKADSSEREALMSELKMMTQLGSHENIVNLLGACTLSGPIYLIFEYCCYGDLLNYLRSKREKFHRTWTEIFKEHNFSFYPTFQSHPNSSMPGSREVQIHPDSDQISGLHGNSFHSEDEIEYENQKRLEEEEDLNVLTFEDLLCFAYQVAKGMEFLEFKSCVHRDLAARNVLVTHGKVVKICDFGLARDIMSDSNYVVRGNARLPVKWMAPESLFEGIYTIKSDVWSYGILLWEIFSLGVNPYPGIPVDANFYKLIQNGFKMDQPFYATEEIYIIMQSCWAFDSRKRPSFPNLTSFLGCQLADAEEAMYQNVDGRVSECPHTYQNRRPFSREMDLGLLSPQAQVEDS

[6] = target: Receptor-type tyrosine-protein kinase FLT3 (Homo sapiens, UniProt P36888, D835Y); test: Inhibition of human recombinant His-tagged FLT3/D835Y mutant expressed in baculovirus expression system incubated for 30 mins in presence of ATP by HTRF analysis
[7] = test system: BaF3; test: Antiproliferative activity against mouse BaF3 cells harboring FLT3 ITD mutant assessed as inhibition of cell growth incubated for 72 hrs by EZ-Cytox colorimetric assay; type: functional
[8] = test system: BaF3; test: Antiproliferative activity against mouse BaF3 cells harboring FLT3 ITD/D835Y double mutant assessed as inhibition of cell growth incubated for 72 hrs by EZ-Cytox colorimetric assay; type: functional
[9] = test system: BaF3; test: Antiproliferative activity against mouse BaF3 cells harboring FLT3 ITD/F691L double mutant assessed as inhibition of cell growth incubated for 72 hrs by EZ-Cytox colorimetric assay; type: functional
[10] = test system: Huh-7; test: Antiproliferative activity against human Huh-7 cells assessed as inhibition of cell growth incubated for 72 hrs by EZ-Cytox colorimetric assay; type: functional
[11] = test system: HepG2; test: Antiproliferative activity against human HepG2 cells assessed as inhibition of cell growth at 1 uM incubated for 72 hrs by EZ-Cytox colorimetric assay relative to control; type: functional
[12] = test system: K562; test: Antiproliferative activity against human K562 cells assessed as inhibition of cell growth at 1 uM incubated for 72 hrs by EZ-Cytox colorimetric assay relative to control; type: functional
[13] = test system: A549; test: Antiproliferative activity against human A549 cells assessed as inhibition of cell growth at 1 uM incubated for 72 hrs by EZ-Cytox colorimetric assay relative to control; type: functional
[14] = test system: MDA-MB-231; test: Antiproliferative activity against human MDA-MB-231 cells assessed as inhibition of cell growth at 1 uM incubated for 72 hrs by EZ-Cytox colorimetric assay relative to control; type: functional
[15] = test system: HCT-116; test: Antiproliferative activity against human HCT-116 cells assessed as inhibition of cell growth at 1 uM incubated for 72 hrs by EZ-Cytox colorimetric assay relative to control; type: functional
[16] = test system: PC-3; test: Antiproliferative activity against human PC-3 cells assessed as inhibition of cell growth at 1 uM incubated for 72 hrs by EZ-Cytox colorimetric assay relative to control; type: functional
[17] = AUClast in ICR mouse at 10 mg/kg, iv measured upto 24 hrs; type: ADME, organism-based; design: time < 24 hrs, dose 10 mg/kg, route iv; conditions: in vivo
[18] = Clearance in ICR mouse at 10 mg/kg, iv measured upto 24 hrs; type: ADME, organism-based; conditions: in vivo
[19] = Volume of distribution at steady state in ICR mouse at 10 mg/kg, iv measured upto 24 hrs; type: ADME, organism-based; conditions: in vivo, read-out: Vdss
[20] = Half life in ICR mouse at 10 mg/kg, iv measured upto 24 hrs; type: ADME, organism-based; conditions: in vivo

Compound	GI50 [1]	GI50 [2]	GI50 [3]	IC50 [5]	IC50 [6]	further results
O=C1Nc2ccc(F)cc2/C1=C1/Nc2ccccc2/C1=N\OCCN1CCNCC1	3.69 nM	25.3 nM	23.1 nM			GI50 [4]: 75.6 nM
COc1ccc2c(c1)/C(=C1/Nc3ccccc3/C1=N\OCC(=O)N1CCNCC1)C(=O)N2	8.39 nM	40.4 nM	36.4 nM	1.66 nM	1.61 nM	
O=C(CO/N=C1/C(=C2/C(=O)Nc3ccc(F)cc32)Nc2ccccc21)NC1CCNCC1	3.27 nM	18.6 nM	25.8 nM	2.62 nM	2.16 nM	
O=C(CO/N=C1/C(=C2/C(=O)Nc3ccccc32)Nc2ccccc21)N[C@H]1CCNC1	0.68 nM	5.35 nM	4.88 nM	0.64 nM	0.2 nM	GI50 [4]: 10.7 nM
O=C1Nc2ccc(I)cc2/C1=C1/Nc2ccccc2/C1=N\OCC(=O)N1CCNCC1	3.72 nM	23.7 nM	20.9 nM	0.8 nM	0.45 nM	
CN1CC[C@@H](NC(=O)CO/N=C2/C(=C3/C(=O)Nc4ccccc43)Nc3ccccc32)C1	10.5 nM	30.2 nM	28.6 nM	1.4 nM	2.19 nM	
CCc1nc(C(N)=O)c(Nc2ccc(N3CCC(N4CCN(C)CC4)CC3)c(OC)c2)cc1NC1CCOCC1	8.2 nM	35.4 nM	19.4 nM			GI50 [4]: 70.1 nM; GI50 [7]: 1.9 nM; GI50 [8]: 2.45 nM; GI50 [9]: 38 nM; GI50 [10]: 435 nM; inhibition at 1 µM [11]: 46.9%; inhibition at 1 µM [12]: 74.6%; inhibition at 1 µM [13]: 4.31%; inhibition at 1 µM [14]: 42.1%; inhibition at 1 µM [15]: 47.7%; inhibition at 1 µM [16]: 44.3%
CN1CC[C@H](NC(=O)CO/N=C2/C(=C3/C(=O)Nc4ccccc43)Nc3ccccc32)C1	6.12 nM	22.1 nM	21.1 nM	2.01 nM	1.91 nM	
NC1CCN(C(=O)CO/N=C2/C(=C3/C(=O)Nc4ccc(Cl)cc43)Nc3ccccc32)CC1	10.5 nM	40.3 nM	43.2 nM	1.82 nM	1.34 nM	
CN1CCC(NC(=O)CO/N=C2/C(=C3/C(=O)Nc4ccccc43)Nc3ccccc32)CC1	43.6 nM	133 nM	56.3 nM	15.8 nM	53.5 nM	
CN1CCC(NC(=O)CO/N=C2/C(=C3/C(=O)Nc4ccc(F)cc43)Nc3ccccc32)CC1	38.7 nM	75.9 nM	60.6 nM	7.31 nM	14.3 nM	
NC1CCN(C(=O)CO/N=C2/C(=C3/C(=O)Nc4ccccc43)Nc3ccccc32)CC1	17.3 nM	48.6 nM	38.9 nM	2.07 nM	3.07 nM	
O=C1Nc2ccc(F)cc2/C1=C1/Nc2ccccc2/C1=N\OCCC(=O)N1CCNCC1	29.5 nM	111 nM	112 nM	1.23 nM	3.41 nM	
O=C(CO/N=C1/C(=C2/C(=O)Nc3ccc(Cl)cc32)Nc2ccccc21)NC1CCNCC1	1.08 nM	8.56 nM	35.1 nM	1.18 nM	1.08 nM	
CN1CC(NC(=O)CO/N=C2/C(=C3/C(=O)Nc4ccccc43)Nc3ccccc32)C1	2.61 nM	17.4 nM	17.9 nM	0.79 nM	0.75 nM	
O=C1Nc2ccccc2/C1=C1/Nc2ccccc2/C1=N\OCCC(=O)N1CCNCC1					2.89 nM	

Compound	GI50 [1]	GI50 [2]	GI50 [3]	IC50 [5]	IC50 [6]	further results
O=C1Nc2ccc(Cl)cc2/C1=C1/Nc2ccccc2/C1=N\OCC(=O)N1CCNCC1	0.76 nM	7.22 nM	12.7 nM	0.27 nM	0.2 nM	
Cl.O=C(CO/N=C1/C(=C2/C(=O)Nc3ccccc32)Nc2ccccc21)N[C@@H]1CCNC1	0.52 nM	2.73 nM	3.49 nM	0.29 nM	0.2 nM	GI50 [4]: 3.23 nM; AUC(0-t) at 24 h [17]: 367 ng·h/mL; clearance [18]: 323 mL/min/kg; Vd [19]: 103 L/kg; half-life [20]: 3.7 h
O=C1Nc2ccc(F)cc2/C1=C1/Nc2ccccc2/C1=N\OCCS(=O)(=O)N1CCNCC1	842 nM			> 50 nM	> 50 nM	
CN1CCC(NC(=O)CO/N=C2/C(=C3/C(=O)Nc4ccc(Cl)cc43)Nc3ccccc32)CC1	16.2 nM	67 nM	123 nM	15 nM	21.2 nM	
CN1CCN(C(=O)CO/N=C2/C(=C3/C(=O)Nc4ccc(Cl)cc43)Nc3ccccc32)CC1	18.3 nM	103 nM	59.1 nM	1.3 nM	0.39 nM	
O=C(CO/N=C1/C(=C2/C(=O)Nc3ccccc32)Nc2ccccc21)NC1CCNCC1	7.01 nM	25.6 nM	23.8 nM	2.02 nM	1.12 nM	
O=C(CO/N=C1/C(=C2/C(=O)Nc3ccccc32)Nc2ccccc21)NC1CNC1	4.95 nM	19.6 nM	22.3 nM	4.95 nM	3.25 nM	
CN1CCN(C(=O)CO/N=C2/C(=C3/C(=O)Nc4ccccc43)Nc3ccccc32)CC1	12.2 nM	27.8 nM	23.5 nM	1.17 nM	0.52 nM	
O=C1Nc2ccc(OC(F)(F)F)cc2/C1=C1/Nc2ccccc2/C1=N\OCC(=O)N1CCNCC1	27.4 nM	71.9 nM	87.5 nM	3.65 nM	1.62 nM	
O=C1Nc2ccc(F)cc2/C1=C1/Nc2ccccc2/C1=N\OCC(=O)N1CCNCC1	1.23 nM	7.17 nM	7.13 nM	0.29 nM	0.18 nM	
O=C1Nc2ccc(F)cc2/C1=C1/Nc2ccccc2/C1=N\OCS(=O)(=O)N1CCNCC1	9.58 nM	46.2 nM	30.8 nM	3.29 nM	2.71 nM	
NC1CCN(C(=O)CO/N=C2/C(=C3/C(=O)Nc4ccc(F)cc43)Nc3ccccc32)CC1	9.76 nM	36.7 nM	28.1 nM	2.54 nM	3.45 nM	
CN1CCN(C(=O)CO/N=C2/C(=C3/C(=O)Nc4ccc(F)cc43)Nc3ccccc32)CC1	6.49 nM	28 nM	26.1 nM	0.93 nM	0.35 nM	
O=C1Nc2ccccc2/C1=C1/Nc2ccccc2/C1=N\OCS(=O)(=O)N1CCNCC1					3.78 nM	
O=C1Nc2ccc(Br)cc2/C1=C1/Nc2ccccc2/C1=N\OCC(=O)N1CCNCC1	1.27 nM	13.9 nM	16.1 nM	0.67 nM	0.22 nM	
